# Experimental data: PMC4207771, “Identification and Characterization of Novel Renal Sensory Receptors” (PLoS ONE, 2014)
# Biological target: T1, Olfr691 (Mus musculus, UniProt Q8VGW5)
# T1 construct: Lucy (N); expressed in transfected cells; host or cells: HEK293T, co-transfected with RTP1S
# T1 sequence (Q8VGW5 1-322): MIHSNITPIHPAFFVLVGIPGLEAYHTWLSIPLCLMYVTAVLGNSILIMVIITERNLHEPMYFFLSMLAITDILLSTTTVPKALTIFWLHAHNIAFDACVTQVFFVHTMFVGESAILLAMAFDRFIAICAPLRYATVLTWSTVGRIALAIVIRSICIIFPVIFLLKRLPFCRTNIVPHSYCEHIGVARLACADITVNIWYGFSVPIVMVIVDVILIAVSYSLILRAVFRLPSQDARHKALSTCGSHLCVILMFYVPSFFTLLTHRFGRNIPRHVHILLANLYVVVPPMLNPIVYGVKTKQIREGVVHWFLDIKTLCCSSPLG
# Assay: dual-luciferase (cAMP/CREB reporter) ligand screen, Olfr691 in HEK293T cells
# Format: cell-based
# Conditions: not given
row,Compound,Olfr691 response (in words)
1,O=CO [formate],not including

# Same assay, conditions: HEK-293T, 4 h; 0.5 mM ligand; normalized to the response of Olfr691 to the strongest ligand, 4-pentenoate
row,Compound,Relative response (% of 4-pentenoate response) at 500 µM [%]
1,CCCCCC(=O)O [caproate],80 ± 1.4

# Same assay, conditions: chemicals tested individually, screened at 500uM (* also at 100uM)
row,Compound,Olfr691 response in dual-luciferase assay
1,O=C(O)CC(O)(CC(=O)O)C(=O)O [citric acid],-
2,"Cc1ccc(C)s1 [2,5-Dimethylthiophene]",-
3,CC1(C)C2CCC(=O)C1C2 (stereo not shown) [nopinone],-
4,CC(C)(O)CCCC1=CCC(C=O)CC1 (stereo not shown) [Lyral],-
5,O=C(O)C1CCCCC1 [Cyclohexanecarboxylic acid],-
6,O=Cc1ccccc1 [benzaldehyde],-
7,C=C[C@H](O)CCCCC [(R)-1-Octen-3-ol],-
8,"O=C1CCC(=O)CC1 [1,4-cyclohexanedione]",-
9,"SCCCCS [1,4-butanedithiol]",-
10,C=CC(C)(CCC=C(C)C)OC(C)=O (stereo not shown) [Linalyl acetate],-
11,N[C@@H](CCC(=O)O)C(=O)O [l-glutamate],-
12,COc1ccccc1 [Anisole],-
13,"CC(O)C(C)O (stereo not shown) [2,3-butanediol]",-
14,CC(C)[C@H](N)C(=O)O [l-valine],-
15,"CCCC1CCOC(C)S1 (stereo not shown) [2-Methyl-4-propyl-1,3-oxathiane]",-
16,CCCCCC(=O)O [caproate],+
17,"Cn1c(=O)c2c(ncn2C)n(C)c1=O [caffeine, reference compound]",-
18,O=C1Cc2ccccc2O1 [2-cumaranon],-
19,CC(C)(C)C1CCC(O)CC1 (stereo not shown) [4-tert-butylcyclohexanol],-
20,CC(C)C(=O)OCCc1ccccc1 [phenyl ethyl isobutyrate],-
21,CCCCCC(C)O (stereo not shown) [2-Heptanol],-
22,"COc1cccc(OC)c1 [1,3-Dimethoxybenzene]",-
23,CC(C)C=O [Isobutyraldehyde],-
24,"C[C@]12CC[C@@H]3c4ccc(O)cc4CC[C@H]3[C@@H]1CC[C@@H]2O [estradiol, reference compound]",-

# Biological target: T2, Olfr31 (Mus musculus, UniProt Q3KPA7)
# T2 construct: expressed in transfected cells; host or cells: HEK293T, co-transfected with RTP1S
# T2 sequence (Q3KPA7 1-317): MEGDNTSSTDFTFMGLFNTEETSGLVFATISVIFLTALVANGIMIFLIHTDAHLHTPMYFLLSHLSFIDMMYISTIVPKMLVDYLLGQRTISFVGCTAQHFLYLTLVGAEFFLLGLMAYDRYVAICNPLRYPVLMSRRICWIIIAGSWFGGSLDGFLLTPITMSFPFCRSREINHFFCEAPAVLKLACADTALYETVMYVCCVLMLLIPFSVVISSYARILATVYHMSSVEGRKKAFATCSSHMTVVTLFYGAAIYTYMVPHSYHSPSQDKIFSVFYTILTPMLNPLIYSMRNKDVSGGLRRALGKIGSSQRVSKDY
# Assay: dual-luciferase (cAMP/CREB reporter) ligand screen, Olfr31 in HEK293T cells
# Format: cell-based
# Conditions: chemicals tested individually, screened at 500uM (* also at 100uM)
row,Compound,Olfr31 response in dual-luciferase assay
1,O=C(O)CC(O)(CC(=O)O)C(=O)O [citric acid],-
2,"Cc1ccc(C)s1 [2,5-Dimethylthiophene]",-
3,CC1(C)C2CCC(=O)C1C2 (stereo not shown) [nopinone],-
4,CC(C)(O)CCCC1=CCC(C=O)CC1 (stereo not shown) [Lyral],-
5,O=C(O)C1CCCCC1 [Cyclohexanecarboxylic acid],-
6,O=Cc1ccccc1 [benzaldehyde],-
7,C=C[C@H](O)CCCCC [(R)-1-Octen-3-ol],-
8,"O=C1CCC(=O)CC1 [1,4-cyclohexanedione]",-
9,"SCCCCS [1,4-butanedithiol]",-
10,C=CC(C)(CCC=C(C)C)OC(C)=O (stereo not shown) [Linalyl acetate],-
11,N[C@@H](CCC(=O)O)C(=O)O [l-glutamate],-
12,COc1ccccc1 [Anisole],-
13,"CC(O)C(C)O (stereo not shown) [2,3-butanediol]",-
14,CC(C)[C@H](N)C(=O)O [l-valine],-
15,"CCCC1CCOC(C)S1 (stereo not shown) [2-Methyl-4-propyl-1,3-oxathiane]",-
16,CCCCCC(=O)O [caproate],-
17,"Cn1c(=O)c2c(ncn2C)n(C)c1=O [caffeine, reference compound]",-
18,O=C1Cc2ccccc2O1 [2-cumaranon],-
19,CC(C)(C)C1CCC(O)CC1 (stereo not shown) [4-tert-butylcyclohexanol],-
20,CC(C)C(=O)OCCc1ccccc1 [phenyl ethyl isobutyrate],-
21,CCCCCC(C)O (stereo not shown) [2-Heptanol],-
22,"COc1cccc(OC)c1 [1,3-Dimethoxybenzene]",-
23,CC(C)C=O [Isobutyraldehyde],-

# System: Olfr545
# Assay: dual-luciferase (cAMP/CREB reporter) ligand screen, Olfr545 in HEK293T cells
# Format: cell-based, mouse
# Parameters: key to Olfr545 response in dual-luciferase assay: ‘+’ or ‘–‘ in each column indicates if the olfactory receptor responded or had no effect to that specific chemical; -: ‘+’ or ‘–‘ in each column indicates if the olfactory receptor responded or had no effect to that specific chemical
# Conditions: chemicals tested individually, screened at 500uM (* also at 100uM)
row,Compound,Olfr545 response in dual-luciferase assay
1,O=C(O)CC(O)(CC(=O)O)C(=O)O [citric acid],-
2,"Cc1ccc(C)s1 [2,5-Dimethylthiophene]",-
3,CC1(C)C2CCC(=O)C1C2 (stereo not shown) [nopinone],-
4,CC(C)(O)CCCC1=CCC(C=O)CC1 (stereo not shown) [Lyral],-
5,O=C(O)C1CCCCC1 [Cyclohexanecarboxylic acid],-
6,O=Cc1ccccc1 [benzaldehyde],-
7,C=C[C@H](O)CCCCC [(R)-1-Octen-3-ol],-
8,"O=C1CCC(=O)CC1 [1,4-cyclohexanedione]",-
9,"SCCCCS [1,4-butanedithiol]",-
10,C=CC(C)(CCC=C(C)C)OC(C)=O (stereo not shown) [Linalyl acetate],-
11,N[C@@H](CCC(=O)O)C(=O)O [l-glutamate],-
12,COc1ccccc1 [Anisole],-
13,"CC(O)C(C)O (stereo not shown) [2,3-butanediol]",-
14,CC(C)[C@H](N)C(=O)O [l-valine],-
15,"CCCC1CCOC(C)S1 (stereo not shown) [2-Methyl-4-propyl-1,3-oxathiane]",-
16,CCCCCC(=O)O [caproate],-
17,"Cn1c(=O)c2c(ncn2C)n(C)c1=O [caffeine, reference compound]",-
18,O=C1Cc2ccccc2O1 [2-cumaranon],-
19,CC(C)(C)C1CCC(O)CC1 (stereo not shown) [4-tert-butylcyclohexanol],-
20,CC(C)C(=O)OCCc1ccccc1 [phenyl ethyl isobutyrate],-
21,CCCCCC(C)O (stereo not shown) [2-Heptanol],-
22,"COc1cccc(OC)c1 [1,3-Dimethoxybenzene]",-
23,CC(C)C=O [Isobutyraldehyde],-
24,"C[C@]12CC[C@@H]3c4ccc(O)cc4CC[C@H]3[C@@H]1CC[C@@H]2O [estradiol, reference compound]",-
25,CC(C)CC(=O)O [isovaleric acid],-

# System: Olfr99
# Assay: dual-luciferase (cAMP/CREB reporter) ligand screen, Olfr99 in HEK293T cells
# Format: cell-based, mouse
# Parameters: key: ‘+’ or ‘–‘ in each column indicates if the olfactory receptor responded or had no effect to that specific chemical; -: ‘+’ or ‘–‘ in each column indicates if the olfactory receptor responded or had no effect to that specific chemical
# Conditions: chemicals tested individually, screened at 500uM (* also at 100uM)
row,Compound,Olfr99 response in dual-luciferase assay
1,O=C(O)CC(O)(CC(=O)O)C(=O)O [citric acid],-
2,"Cc1ccc(C)s1 [2,5-Dimethylthiophene]",-
3,CC1(C)C2CCC(=O)C1C2 (stereo not shown) [nopinone],-
4,CC(C)(O)CCCC1=CCC(C=O)CC1 (stereo not shown) [Lyral],-
5,O=C(O)C1CCCCC1 [Cyclohexanecarboxylic acid],-
6,O=Cc1ccccc1 [benzaldehyde],-
7,C=C[C@H](O)CCCCC [(R)-1-Octen-3-ol],-
8,"O=C1CCC(=O)CC1 [1,4-cyclohexanedione]",-
9,"SCCCCS [1,4-butanedithiol]",-
10,C=CC(C)(CCC=C(C)C)OC(C)=O (stereo not shown) [Linalyl acetate],-
11,N[C@@H](CCC(=O)O)C(=O)O [l-glutamate],-
12,COc1ccccc1 [Anisole],-
13,"CC(O)C(C)O (stereo not shown) [2,3-butanediol]",-
14,CC(C)[C@H](N)C(=O)O [l-valine],-
15,"CCCC1CCOC(C)S1 (stereo not shown) [2-Methyl-4-propyl-1,3-oxathiane]",-
16,CCCCCC(=O)O [caproate],-
17,"Cn1c(=O)c2c(ncn2C)n(C)c1=O [caffeine, reference compound]",-
18,O=C1Cc2ccccc2O1 [2-cumaranon],-
19,CC(C)(C)C1CCC(O)CC1 (stereo not shown) [4-tert-butylcyclohexanol],-
20,CC(C)C(=O)OCCc1ccccc1 [phenyl ethyl isobutyrate],-
21,CCCCCC(C)O (stereo not shown) [2-Heptanol],-
22,"COc1cccc(OC)c1 [1,3-Dimethoxybenzene]",-
23,CC(C)C=O [Isobutyraldehyde],-
24,"C[C@]12CC[C@@H]3c4ccc(O)cc4CC[C@H]3[C@@H]1CC[C@@H]2O [estradiol, reference compound]",-
25,CC(C)CC(=O)O [isovaleric acid],-

# System: Olfr693
# Assay: dual-luciferase (cAMP/CREB reporter) ligand screen, Olfr693 in HEK293T cells
# Format: cell-based, mouse
# Parameters: key: ‘+’ or ‘–‘ in each column indicates if the olfactory receptor responded or had no effect to that specific chemical; -: ‘+’ or ‘–‘ in each column indicates if the olfactory receptor responded or had no effect to that specific chemical
# Conditions: chemicals tested individually, screened at 500uM (* also at 100uM)
row,Compound,Olfr693 response in dual-luciferase assay
1,O=C(O)CC(O)(CC(=O)O)C(=O)O [citric acid],-
2,"Cc1ccc(C)s1 [2,5-Dimethylthiophene]",-
3,CC1(C)C2CCC(=O)C1C2 (stereo not shown) [nopinone],-
4,CC(C)(O)CCCC1=CCC(C=O)CC1 (stereo not shown) [Lyral],-
5,O=C(O)C1CCCCC1 [Cyclohexanecarboxylic acid],-
6,O=Cc1ccccc1 [benzaldehyde],-
7,C=C[C@H](O)CCCCC [(R)-1-Octen-3-ol],-
8,"O=C1CCC(=O)CC1 [1,4-cyclohexanedione]",-
9,"SCCCCS [1,4-butanedithiol]",-
10,C=CC(C)(CCC=C(C)C)OC(C)=O (stereo not shown) [Linalyl acetate],-
11,N[C@@H](CCC(=O)O)C(=O)O [l-glutamate],-
12,COc1ccccc1 [Anisole],-
13,"CC(O)C(C)O (stereo not shown) [2,3-butanediol]",-
14,CC(C)[C@H](N)C(=O)O [l-valine],-
15,"CCCC1CCOC(C)S1 (stereo not shown) [2-Methyl-4-propyl-1,3-oxathiane]",-
16,CCCCCC(=O)O [caproate],-
17,"Cn1c(=O)c2c(ncn2C)n(C)c1=O [caffeine, reference compound]",-
18,O=C1Cc2ccccc2O1 [2-cumaranon],-
19,CC(C)(C)C1CCC(O)CC1 (stereo not shown) [4-tert-butylcyclohexanol],-
20,CC(C)C(=O)OCCc1ccccc1 [phenyl ethyl isobutyrate],-
21,CCCCCC(C)O (stereo not shown) [2-Heptanol],-
22,"COc1cccc(OC)c1 [1,3-Dimethoxybenzene]",-
23,CC(C)C=O [Isobutyraldehyde],-
24,"C[C@]12CC[C@@H]3c4ccc(O)cc4CC[C@H]3[C@@H]1CC[C@@H]2O [estradiol, reference compound]",-
25,CC(C)CC(=O)O [isovaleric acid],-
